According to ChEMBL document CHEMBL3045387, “Synthesis and Fungicidal Activity of New 1, 3, 2-Oxazaphospholidine 2-Sulfides” (1994):

Columns and labels:
Format in all cases: functional
Conditions in all cases: 96 h, read-out: GI
[1] = test system: Pythium; test: Antimicrobial activity against Pythium sp. assessed as inhibition of mycelial growth on potato dextrose agar at 100 ppm at 27 degC measured after 4 days
[2] = test system: Pythium; test: Antimicrobial activity against Pythium sp. assessed as inhibition of mycelial growth on potato dextrose agar at 1000 ppm at 27 degC measured after 4 days
[3] = test system: Corticium; test: Antimicrobial activity against Corticium sp. assessed as inhibition of mycelial growth on potato dextrose agar at 100 ppm at 27 degC measured after 4 days
[4] = test system: Corticium; test: Antimicrobial activity against Corticium sp. assessed as inhibition of mycelial growth on potato dextrose agar at 1000 ppm at 27 degC measured after 4 days

SMILES	inhibition of growth at 100 ppm [1]	inhibition of growth at 1000 ppm [2]	inhibition of growth at 100 ppm [3]	inhibition of growth at 1000 ppm [4]
CC1=CC[C@@H](C(C)(C)O)CC1 [ALPHA-TERPINEOL]	11.2%	100%	71.8%	100%
Cc1ccc(C(C)C)c(OP2(=S)N[C@@H](Cc3ccccc3)CO2)c1 (some centres undefined)	19.8%	46%	33.8%	41%
C=C1CCC2CC1C2(C)C (stereo not drawn) [BETA-PINENE]	0%	2.2%	1.2%	16.3%
Cc1ccc(C(C)C)c(OP2(=S)N[C@@H](C(C)C)CO2)c1 (some centres undefined)	29.8%	–	18.7%	–
CC(C)=CCC/C(C)=C/COP1(=S)N[C@@H](C(C)C)CO1 (some centres undefined)	68.2%	–	68.6%	–
Cc1ccc(O)c(C(C)C)c1 [ISOTHYMOL]	94.3%	100%	72.4%	100%
C=CCc1ccc(OP2(=S)N[C@@H](CC(C)C)CO2)c(OC)c1 (some centres undefined)	9.9%	–	0.8%	–
CC1(C)C2CC=C(CO)C1C2 (centres undefined) [MYRTENOL]	41%	100%	56%	100%
CC(C)c1ccc(C=O)cc1 [CUMINALDEHYDE]	14%	100%	22%	100%
Cc1ccc(C(C)C)c(OP2(=S)N[C@@H](C)CO2)c1 (some centres undefined)	0%	–	0%	–
CC12CCC(CC1)C(C)(C)O2 [EUCALYPTOL]	0%	0.4%	8.3%	0%
CC(C)=CCCC(C)CCOP1(=S)N[C@@H](C(C)C)CO1 (some centres undefined)	87.3%	–	42.6%	–
Cc1ccc(C(C)C)c(OP2(=S)N[C@@H](CC(C)C)CO2)c1 (some centres undefined)	19.8%	36.1%	36.8%	77.1%
Cc1ccc(OP2(=S)N[C@@H](CC(C)C)CO2)c(C(C)C)c1 (some centres undefined)	11.7%	58.2%	14.6%	64.3%
COC(=O)/C=C/c1ccccc1 [E-METHYL CINNAMATE]	66%	100%	54%	100%
CC(C)=CCCC(C)CCOP1(=S)N[C@@H](Cc2ccccc2)CO1 (some centres undefined)	1.6%	30.8%	21.1%	66.8%
CC[C@H](C)[C@H]1COP(=S)(OC/C=C(\C)CCC=C(C)C)N1 (some centres undefined)	0%	–	0%	–
C=CC(C)(O)CCC=C(C)C (centres undefined) [LINALOOL]	21.3%	67.4%	46.9%	93.9%
C=CCc1ccc(O)c(OC)c1 [EUGENOL]	92.7%	100%	67.6%	100%
CC[C@H](C)[C@H]1COP(=S)(Oc2cc(C)ccc2C(C)C)N1 (some centres undefined)	3.7%	–	0%	–
CC(=O)CCc1ccccc1 [BENZYLACETONE]	24.5%	100%	30.5%	100%

SMILES	inhibition of growth at 100 ppm [1]	inhibition of growth at 1000 ppm [2]	inhibition of growth at 100 ppm [3]	inhibition of growth at 1000 ppm [4]
Cc1ccc(C(C)C)c(O)c1 [THYMOL]	93%	100%	71%	100%
Cc1ccc(OP2(=S)N[C@@H](C)CO2)c(C(C)C)c1 (some centres undefined)	10.8%	–	31.7%	–
Cc1ccc(OP2(=S)N[C@@H](C(C)C)CO2)c(C(C)C)c1 (some centres undefined)	24.3%	–	0%	–
Cc1ccc(C(C)C)cc1 [P-CYMENE]	0%	0.2%	14.4%	13.6%
CC(C)=CCC/C(C)=C/COP1(=S)N[C@@H](CC(C)C)CO1 (some centres undefined)	35.4%	100%	26.7%	97.9%
CC1(C)C2CCC1(C)C(O)C2 (centres undefined) [BORNEOL]	21.1%	100%	27.7%	100%
CC12CCC(CC1=O)C2(C)C (centres undefined) [CAMPHOR]	0%	9.3%	0.4%	22.1%
C=CCc1ccc(OP2(=S)N[C@@H]([C@@H](C)CC)CO2)c(OC)c1 (some centres undefined)	41.7%	–	25.3%	–
CC1=CCC2CC1C2(C)C (stereo not drawn) [ALPHA-PINENE]	4%	0%	0.8%	46.3%
CC(C)=CCCC(C)CCOP1(=S)N[C@@H](C)CO1 (some centres undefined)	0%	–	0%	–
CC[C@H](C)[C@H]1COP(=S)(OCCC(C)CCC=C(C)C)N1 (some centres undefined)	0%	–	0%	–
Cc1ccc(OP2(=S)N[C@@H](Cc3ccccc3)CO2)c(C(C)C)c1 (some centres undefined)	9.4%	58.2%	15.3%	36%
CC1=CCC(O)(C(C)C)CC1 (centres undefined) [TERPINEOL]	7.1%	98.3%	0%	98.3%
C=CCc1ccc(OP2(=S)N[C@@H](C(C)C)CO2)c(OC)c1 (some centres undefined)	53.9%	–	37.5%	–
CC(C)=CCCC(C)CCOP1(=S)N[C@@H](CC(C)C)CO1 (some centres undefined)	24.7%	53.9%	26.7%	82.9%
CC(C)=CCCC(C)CCO (centres undefined) [CITRONELLOL]	68.9%	100%	23.9%	100%
CC(C)=CCC/C(C)=C/COP1(=S)N[C@@H](C)CO1 (some centres undefined)	20.2%	–	22.7%	–
CC(C)=CCC/C(C)=C/CO [GERANIOL]	63.3%	100%	71.8%	100%
CC[C@H](C)[C@H]1COP(=S)(Oc2ccc(C)cc2C(C)C)N1 (some centres undefined)	12.5%	–	0%	–
CC(C)=CCC/C(C)=C/COP1(=S)N[C@@H](Cc2ccccc2)CO1 (some centres undefined)	4%	16.9%	28.5%	60.4%
